Test results reported in patent publication US20180353613A1, “ANIONIC NANOPARTICLES FOR USE IN THE DELIVERY OF ANIONIC SMALL MOLECULE DRUGS” (B.G. NEGEV TECHNOLOGIES AND APPLICATIONS LTD, priority 2015, published 2018).
Values after ≈ are worked out from the molar mass of the structure shown.

Assays:
MDA-MB-231 cells [1] = test: Cellular uptake of DOX by ImageStreamX imaging flow cytometry; format: cell-based, human; settings: 5.8 μg/ml DOX
Experimental: (§1) Imaging experiments using an imaging flow cytometer (Amnis ImageStreamX, ISX) were performed to quantitatively evaluate the cellular uptake of DOX. Cells were seeded in 6-well culture plates at a cell density of 300,000 cells per well. Twenty-four hours post-seeding, the cells were incubated for 4 h with Free DOX or AlgS-Ca^2+-DOX anionic NPs (5.8 μg/ml DOX, 5 mM Ca^2+, 0.5 μg/ml AlgS), and then medium was replaced to fresh medium for 24 h. For ISX analysis, the cells were harvested (at 4 or 24 h after DOX NP addition) by trypsinization followed by centrifugation at 300 g for 5 min. The cell pellet was resuspended in FACS buffer (PBS containing 2% FBS, v/v) and cells were analyzed using ImageStreamX Mark II (Amnis, Seattle, Wash.). Cell acquisition and analysis were performed using IDEAS Application, version 6.0.

NAR cells = test: as above; format: cell-based, human; settings: 5.8 μg/ml DOX
Experimental: as §1

MDA-MB-231 cells [2] = test: In vivo antitumor activity in MDA-MB-231 tumor-bearing athymic nude mice; settings: 4 mg/kg i.v., three weekly injections
Experimental: Female athymic nude mice (six weeks old, body weight=20-23 g) are inoculated to the right cranial trunk region with MDA-MB-231 cells/Matrigel™ 1:1 (v/v) suspension (3×10^6 cells/0.2 mL/animal). Treatment is commenced when tumor size is approximately 100-150 mm^3. Mice are treated intravenously (i.v.) with three weekly injections of 4 mg/kg ([…] 12 mg/kg) of DOX or DOX NPs in saline. NPs were prepared as described above using the following stock solutions: 2 mg/ml DOX, 1M CaCl2, 50 μg/ml AlgS. Prior to injection: DOX (0.5 mg/ml), or DOX NPs were diluted 1:1.5 in saline. Tumor progression is monitored twice a week by caliper measurement and calculated using the formula: Volume=(width)^2×length/2. Mice are observed daily, and body weight is detected as possible signs of toxicity. For histological analysis, mice are euthanized at the end of the treatments. Following excision, tumors are weighted, fixed in 4% formaldehyde, embedded in paraffin, and sectioned into 5-μm slices. Tissue samples are analyzed by H&E staining for histopathological changes, Ki67 staining for cell proliferation and TUNEL assay for apoptotic cell death.

[3] = system: CT26 mouse colon carcinoma cells; test: In vitro cytotoxicity of MTX complexes, PrestoBlue cell viability assay; format: cell-based; settings: CT26, 48 h incubation
Experimental: CT26 mouse colon carcinoma cells or MDA-MB-231 human breast cancer cell line were seeded in 48-well plates at a density of 10,000 cells per well. After 24 h, medium was replaced with medium containing MTX nano-complexes or free MTX at various concentrations. After 48 h incubation, cell viability was assessed using PrestoBlue cell viability assay (Life Technologies, Carlsbad, Calif.). The assay is based on the live cell's ability to reduce resazurin (non-fluorescent) to resorufin (fluorescent). PrestoBlue working solution was prepared by dilution of PrestoBlue reagent 1:10 in cell culture medium. PrestoBlue working solution was added to the cells for 1 h at 37° C. and 5% CO2. Fluorescent intensity was measured using the Synergy Mx microplate reader (Biotek, Winooski, Vt.) at an excitation wavelength of 560 nm and emission wavelength of 590 nm. The percentage of cell viability was obtained after normalizing the data to untreated cells.
Statistical analysis was performed with GraphPad Prism version 6.05 for Windows (GraphPad Software, San Diego, Calif.). All variables are expressed as mean±SEM. […] Differences between experimental groups as a function of drug concentration were evaluated by 2-way ANOVA, with Sidak's multiple comparisons test. […]

[4] = system: MDA-MB-231 human breast cancer cell line; test: In vitro cytotoxicity of DOX NPs, PrestoBlue cell viability assay; format: cell-based; settings: MDA-MB-231, 48 h
Experimental: MDA-MB-231 or DOX-resistant human ovary carcinoma cell line NAR cells were seeded in 48-well plates at a density of 10,000 cells per well. After 24 h, medium was replaced with medium containing DOX NPs or free DOX at various concentrations. After incubation for 4 h, the medium was replaced to drug-free culture medium. After 48 h incubation, cell viability was assessed using PrestoBlue cell viability assay, as described above.
Statistical analysis was performed with GraphPad Prism version 6.05 for Windows (GraphPad Software, San Diego, Calif.). All variables are expressed as mean±SEM. To test the hypothesis that changes in DLS and potential measurements varied over time among the experimental groups, a general linear 2-way repeated-measures (RM) ANOVA model was used. The model included the effects of treatment, time, and treatment-by-time interaction, with Sidak's multiple comparisons test. Viability data was fit using 4-parametric logistic regression curve, where applicable. IC50 values obtained from the intersection of regression line with 50% response. Differences between experimental groups as a function of drug concentration were evaluated by 2-way ANOVA, with Sidak's multiple comparisons test. P<0.05 was considered statistically significant.

| Compound | % positive cells (DOX-positive) (MDA-MB-231 cells [1]; MDA-MB-231, 4 h) | Mean Fluorescent intensity (MDA-MB-231 cells [1]; MDA-MB-231, 4 h) | % positive cells (DOX-positive) (MDA-MB-231 cells [1]; MDA-MB-231, 24 h) | Mean Fluorescent intensity (MDA-MB-231 cells [1]; MDA-MB-231, 24 h) | % positive cells (DOX-positive) (NAR cells; 4 h) | Mean Fluorescent intensity (NAR cells; 4 h) | % positive cells (DOX-positive) (NAR cells; 4 h, listed as free DOX) | % positive cells (DOX-positive) (NAR cells; 24 h) | Mean Fluorescent intensity (NAR cells; 24 h) | tumor size compared to controls (MDA-MB-231 cells [2]) | IC50 [3] | IC50 [4] |
| --- | --- | --- | --- | --- | --- | --- | --- | --- | --- | --- | --- | --- |
| COc1cccc2c1C(=O)c1c(O)c3c(c(O)c1C2=O)C[C@@](O)(C(=O)CO)C[C@@H]3O[C@H]1C[C@H](N)[C@H](O)[C@H](C)O1.Cl [Free DOX, Doxorubicin-HCl] | 90% | 59061 | 72% | 41944 | 71% | 40932 | ~70% | 13% | 15108 | reduced |  |  |
| CN(Cc1cnc2nc(N)nc(N)c2n1)c1ccc(C(=O)N[C@@H](CCC(=O)O)C(=O)O)cc1 [MTX, Methotrexate] |  |  |  |  |  |  |  |  |  |  | 0.00696 mg/L | 1.27 mg/L (≈ 2.79 µM) |
